Results taken from patent US7396837B2, “Antitumoral analogs of lamellarins” (Pharma Mar, S.A.U., priority 2002, dated 2008).
Like-named read-outs stand apart in the source and are kept apart here.

What was measured:
LNCaP = test: SRB colorimetric cell growth inhibition assay, LNCaP; assay type: cell-based; conditions: Homo sapiens, LNCaP; for GI50: GI=growth inhibition, read-out: GI50 LN-caP; for IC (TGI): total growth inhibition (cytostatic effect), read-out: TGI LN-caP; for CC50: cell killing (cytotoxic effect)
In short: (§1)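 Read-out: sulforhodamine B colorimetry of surviving cell mass after continued exposure of human tumour lines to sample. Values are means ± SD of three wells, expressed as GI, TGI or LC.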

A-549 = test: SRB colorimetric cell growth inhibition assay, A-549; assay type: cell-based; conditions: Homo sapiens; for GI50: GI=growth inhibition, read-out: GI50 A-549; for IC (TGI): TGI=total growth inhibition (cytostatic effect), read-out: TGI A-549; for CC50: LC=cell killing (cytotoxic effect)
In short: as §1

PANC-1 = test: SRB colorimetric cell growth inhibition assay, PANC-1; assay type: cell-based; conditions: Homo sapiens; for GI50: GI=growth inhibition, read-out: GI50 PANC-1; for IC (TGI): TGI=total growth inhibition (cytostatic effect), read-out: TGI PANC-1; for CC50: LC=cell killing (cytotoxic effect)
In short: as §1

SK-BR-3 = test: SRB colorimetric cell growth inhibition assay, SK-BR-3; assay type: cell-based; conditions: Homo sapiens; for GI50: GI=growth inhibition, read-out: GI50 SK-BR-3; for IC (TGI): total growth inhibition (cytostatic effect), read-out: TGI SK-BR-3; for CC50: cell killing (cytotoxic effect)
In short: as §1

SK-MEL-28 = test: SRB colorimetric cell growth inhibition assay, SK-MEL-28; assay type: cell-based; conditions: Homo sapiens; for GI50: GI=growth inhibition, read-out: GI50 MEL-28; for IC (TGI): total growth inhibition (cytostatic effect), read-out: TGI MEL-28; for CC50: cell killing (cytotoxic effect)
In short: as §1

LoVo = test: SRB colorimetric cell growth inhibition assay, LoVo; assay type: cell-based; conditions: Homo sapiens, LoVo; for CC50: LC=cell killing (cytotoxic effect); for GI50: GI=growth inhibition, read-out: GI50 LOVO; for IC (TGI): TGI=total growth inhibition (cytostatic effect), read-out: TGI LOVO
In short: as §1

IGROV = test: SRB colorimetric cell growth inhibition assay, IGROV; assay type: cell-based; conditions: Homo sapiens, IGROV; for CC50: cell killing (cytotoxic effect); for GI50: GI=growth inhibition, read-out: GI50 IGROV; for IC (TGI): total growth inhibition (cytostatic effect), read-out: TGI IGROV
In short: as §1

IGROV-ET = test: SRB colorimetric cell growth inhibition assay, IGROV-ET (ET-743 resistant); assay type: cell-based; conditions: Homo sapiens; for GI50: GI=growth inhibition, read-out: GI50 IGROV-ET; for IC (TGI): total growth inhibition (cytostatic effect), read-out: TGI IGROV-ET; for CC50: cell killing (cytotoxic effect)
In short: as §1

human topoisomerase I = molecular target: T1, human topoisomerase I (Homo sapiens, UniProt P11387); test: Topoisomerase I DNA relaxation assay (supercoiled plasmid DNA); assay type: biochemical; conditions: supercoiled plasmid DNA, each compound tested at 1 μM, agarose gel with ethidium bromide
T1 sequence (P11387 1-765): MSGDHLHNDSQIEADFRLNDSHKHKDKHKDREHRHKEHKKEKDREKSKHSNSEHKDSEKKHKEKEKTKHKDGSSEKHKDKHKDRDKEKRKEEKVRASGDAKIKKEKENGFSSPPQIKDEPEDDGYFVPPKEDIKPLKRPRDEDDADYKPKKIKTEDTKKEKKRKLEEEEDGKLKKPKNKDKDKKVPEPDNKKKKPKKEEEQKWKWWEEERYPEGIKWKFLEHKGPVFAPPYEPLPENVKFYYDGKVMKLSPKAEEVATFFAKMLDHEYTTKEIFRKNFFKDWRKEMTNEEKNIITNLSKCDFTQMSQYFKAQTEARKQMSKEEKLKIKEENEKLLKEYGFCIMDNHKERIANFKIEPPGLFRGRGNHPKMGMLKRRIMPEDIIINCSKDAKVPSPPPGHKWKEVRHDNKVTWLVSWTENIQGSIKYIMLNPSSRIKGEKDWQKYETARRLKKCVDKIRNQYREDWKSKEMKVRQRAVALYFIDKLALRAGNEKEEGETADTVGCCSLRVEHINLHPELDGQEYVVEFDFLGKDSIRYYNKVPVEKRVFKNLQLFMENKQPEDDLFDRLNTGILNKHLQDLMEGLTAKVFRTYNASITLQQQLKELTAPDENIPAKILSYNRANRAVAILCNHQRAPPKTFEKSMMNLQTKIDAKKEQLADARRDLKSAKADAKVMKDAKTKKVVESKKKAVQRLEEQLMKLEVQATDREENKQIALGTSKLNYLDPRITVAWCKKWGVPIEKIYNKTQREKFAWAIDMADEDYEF
In short: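 Test compounds (1 μM each) were present during topoisomerase I relaxation of supercoiled plasmid DNA. Relaxation was assessed on ethidium bromide-stained agarose gels.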

DU-145 = test: SRB colorimetric cell growth inhibition assay, DU-145; assay type: cell-based; conditions: Homo sapiens; for GI50: GI=growth inhibition, read-out: GI50 DU-145; for IC (TGI): total growth inhibition (cytostatic effect), read-out: TGI DU-145; for CC50: cell killing (cytotoxic effect)
In short: as §1

HT-29 = test: SRB colorimetric cell growth inhibition assay, HT-29; assay type: cell-based; conditions: Homo sapiens; for GI50: GI=growth inhibition, read-out: GI50 HT-29; for IC (TGI): TGI=total growth inhibition (cytostatic effect), read-out: TGI HT-29; for CC50: LC=cell killing (cytotoxic effect)
In short: as §1

K-562 = test: SRB colorimetric cell growth inhibition assay, K-562; assay type: cell-based; conditions: Homo sapiens; for GI50: GI=growth inhibition, read-out: GI50 K-562; for IC (TGI): TGI=total growth inhibition (cytostatic effect), read-out: TGI K-562; for CC50: LC=cell killing (cytotoxic effect)
In short: as §1

LoVo-Dox = test: SRB colorimetric cell growth inhibition assay, LoVo-Dox (MDR); assay type: cell-based; conditions: Homo sapiens; for GI50: GI=growth inhibition, read-out: GI50 LOVO-DOX; for IC (TGI): TGI=total growth inhibition (cytostatic effect), read-out: TGI LOVO-DOX; for CC50: LC=cell killing (cytotoxic effect)
In short: as §1

With `COc1cc(-c2c3n(c4c(=O)oc5cc(OC(=O)[C@H](N)C(C)C)c(OC)cc5c24)CCc2cc(OC(=O)[C@H](N)C(C)C)c(OC)cc2-3)ccc1OC(=O)[C@H](N)C(C)C` [Compound 32] as the molecule, how does the GI50 (LNCaP; LN-caP) read?
The GI50 was 0.429 µM.

What about the IC (TGI) (LNCaP; LN-caP) of the same molecule?
Its IC (TGI) is 1.67 µM.

What about the CC50 (LNCaP; read-out: LC50 LN-caP, LN-caP) of the same molecule?
Its CC50 is 5.08 µM.

And the GI50 (A-549; A549, A-549)?
The GI50 was 1.53 µM.

What about the IC (TGI) (A-549; A549, A-549) of the same molecule?
Its IC (TGI) is 3.34 µM.

And the CC50 (A-549; A549, read-out: LC50 A-549, A-549)?
Its CC50 is 7.33 µM.

What about the GI50 (PANC-1; PANC-1, PANC-1) of the same molecule?
Its GI50 is 0.316 µM.

And the IC (TGI) (PANC-1; PANC-1, PANC-1)?
Its IC (TGI) is 1.38 µM.

And the CC50 (PANC-1; PANC-1, read-out: LC50 PANC-1, PANC-1)?
The CC50 was 8.76 µM.

What about the GI50 (SK-BR-3; SK-BR-3, SK-BR-3) of the same molecule?
Its GI50 is 1.3 µM.

And the IC (TGI) (SK-BR-3; SK-BR-3, SK-BR-3)?
The IC (TGI) was 3.19 µM.

What about the CC50 (SK-BR-3; SK-BR-3, read-out: LC50 SK-BR-3, SK-BR-3) of the same molecule?
Its CC50 is 7.82 µM.

And the GI50 (SK-MEL-28; SK-MEL-28, MEL-28)?
Its GI50 is 1.35 µM.

And the IC (TGI) (SK-MEL-28; SK-MEL-28, MEL-28)?
Its IC (TGI) is 2.87 µM.

And the CC50 (SK-MEL-28; SK-MEL-28, read-out: LC50 MEL-28, MEL-28)?
The CC50 was 6.13 µM.

What about the CC50 (LoVo; read-out: LC50 LOVO, LOVO) of the same molecule?
Its CC50 is 6.31 µM.

What about the GI50 (LoVo) of the same molecule?
Its GI50 is 0.392 µM.

What about the IC (TGI) (LoVo) of the same molecule?
Its IC (TGI) is 1.65 µM.

And the CC50 (IGROV; read-out: LC50 IGROV, IGROV)?
Its CC50 is 6.12 µM.

What about the GI50 (IGROV) of the same molecule?
The GI50 was 0.561 µM.

What about the IC (TGI) (IGROV) of the same molecule?
Its IC (TGI) is 2.06 µM.

What about the GI50 (IGROV-ET; IGROV-ET) of the same molecule?
Its GI50 is 0.666 µM.

What about the IC (TGI) (IGROV-ET; IGROV-ET) of the same molecule?
The IC (TGI) was 3.01 µM.

What about the CC50 (IGROV-ET; read-out: LC50 IGROV-ET, IGROV-ET) of the same molecule?
The CC50 was 8.76 µM.

What about the “stimulation of DNA cleavage by topoisomerase I / inhibition of topoisomerase I (nicked DNA band) in DNA relaxation assay” value (human topoisomerase I) of the same molecule?
Its value is “No effect”.

What about the GI50 (DU-145; DU-145, DU-145) of the same molecule?
The GI50 was 0.111 µM.

And the IC (TGI) (DU-145; DU-145, DU-145)?
The IC (TGI) was 0.309 µM.

What about the CC50 (DU-145; DU-145, read-out: LC50 DU-145, DU-145) of the same molecule?
The CC50 was 0.857 µM.

What about the GI50 (HT-29; HT-29, HT-29) of the same molecule?
Its GI50 is 2.66 µM.

What about the IC (TGI) (HT-29; HT-29, HT-29) of the same molecule?
The IC (TGI) was 5.3 µM.

And the CC50 (HT-29; HT-29, read-out: LC50 HT-29, HT-29)?
The CC50 was 8.76 µM.

And the GI50 (K-562; K562, K-562)?
The GI50 was 0.673 µM.

And the IC (TGI) (K-562; K562, K-562)?
The IC (TGI) was 2.43 µM.

What about the CC50 (K-562; K562, read-out: LC50 K-562, K-562) of the same molecule?
The CC50 was 8.31 µM.

And the GI50 (LoVo-Dox; LOVO-DOX)?
The GI50 was 0.671 µM.

And the IC (TGI) (LoVo-Dox; LOVO-DOX)?
The IC (TGI) was 2.42 µM.

And the CC50 (LoVo-Dox; read-out: LC50 LOVO-DOX, LOVO-DOX)?
Its CC50 is 8.25 µM.

What does the source list for `COc1cc(-c2c3c4cc(OC)c(OC(=O)[C@@H]5CCCN5)cc4oc(=O)c3n3ccc4cc(OC(=O)[C@@H]5CCCN5)c(OC)cc4c23)ccc1OC(=O)[C@@H]1CCCN1` [Compound 33]?
GI50 (LNCaP; LN-caP): 0.0397 µM; CC50 (LNCaP; LN-caP, read-out: LC50 LN-caP): 0.423 µM; IC (TGI) (LNCaP; LN-caP): 0.155 µM; GI50 (A-549; A549, A-549): 0.0379 µM; CC50 (A-549; A549, A-549, read-out: LC50 A-549): 0.883 µM; IC (TGI) (A-549; A549, A-549): 0.154 µM; GI50 (PANC-1; PANC-1, PANC-1): 0.0892 µM; CC50 (PANC-1; PANC-1, PANC-1, read-out: LC50 PANC-1): 8.44 µM; IC (TGI) (PANC-1; PANC-1, PANC-1): 1.06 µM; GI50 (SK-BR-3; SK-BR-3, SK-BR-3): 0.0305 µM; CC50 (SK-BR-3; SK-BR-3, SK-BR-3, read-out: LC50 SK-BR-3): 1.44 µM; IC (TGI) (SK-BR-3; SK-BR-3, SK-BR-3): 0.168 µM; GI50 (SK-MEL-28; SK-MEL-28, MEL-28): 0.0411 µM; CC50 (SK-MEL-28; SK-MEL-28, MEL-28, read-out: LC50 MEL-28): 2.48 µM; IC (TGI) (SK-MEL-28; SK-MEL-28, MEL-28): 0.198 µM; GI50 (LoVo): 0.153 µM; CC50 (LoVo; read-out: LC50 LOVO): 0.726 µM; IC (TGI) (LoVo): 0.333 µM; GI50 (IGROV): 0.0496 µM; CC50 (IGROV; read-out: LC50 IGROV): 4.76 µM; IC (TGI) (IGROV): 0.5 µM; GI50 (IGROV-ET; IGROV-ET): 0.0781 µM; CC50 (IGROV-ET; IGROV-ET, read-out: LC50 IGROV-ET): 8.83 µM; IC (TGI) (IGROV-ET; IGROV-ET): 0.589 µM; stimulation of DNA cleavage by topoisomerase I / inhibition of topoisomerase I (nicked DNA band) in DNA relaxation assay (human topoisomerase I): marked inhibition of topoisomerase I; GI50 (DU-145; DU-145, DU-145): 0.0186 µM; CC50 (DU-145; DU-145, DU-145, read-out: LC50 DU-145): 0.367 µM; IC (TGI) (DU-145; DU-145, DU-145): 0.046 µM; GI50 (HT-29; HT-29, HT-29): 1.34 µM; CC50 (HT-29; HT-29, HT-29, read-out: LC50 HT-29): 8.74 µM; IC (TGI) (HT-29; HT-29, HT-29): 3.42 µM; GI50 (K-562; K562, K-562): 0.00596 µM; CC50 (K-562; K562, K-562, read-out: LC50 K-562): 4.03 µM; IC (TGI) (K-562; K562, K-562): 0.918 µM; GI50 (LoVo-Dox; LOVO-DOX): 0.198 µM; CC50 (LoVo-Dox; LOVO-DOX, read-out: LC50 LOVO-DOX): 4.33 µM; IC (TGI) (LoVo-Dox; LOVO-DOX): 0.558 µM
